Entries after “also recorded” stand apart in the source; their conditions may differ.
Tests used:
[1] = test system: THP1 human macrophage cells; assay: Stimulation of THP-1 cells, IL-6 at 6 or 36 hours post stimulation; assay type: cell-based; conditions: THP1-derived macrophages, IFNγ + LPS, 0.1 to 500 μM, FIG. 9
Description: Human immortalized monocytic THP-1 cells were maintained in phenol red free RPMI 1640 medium containing 10% (v/v) fetal bovine serum (FBS), 2 mM L-glutamine, penicillin (100 units/mL), streptomycin (100 μg/mL), amphotericin B (2.5 μg/mL), and 50 μM beta-mercaptoethanol (BME) at 37° C. with 5% (v/v) CO2. THP-1 cells were seeded in 1 mL of THP-1 medium (cell culture medium containing 10% (v/v) FBS, 2 mM L-glutamine, penicillin (100 units/mL), streptomycin (100 μg/mL), amphotericin B ([…]), and 50 μM BME)/well at a density of 1×10^6 cells/mL in six-well plates. Cells were differentiated by adding 10, 50, or 100 nM phorbol 12-myristate 13-acetate (PMA) to each well before incubating cells for 5.5 h at 37° C. with 5% (v/v) CO2. Without removing the media, different concentrations (either 0, 0.1, 1.0, 10, 100, 200, or 500 μM) of the compound were added to each well. Cells were stimulated, within 30 min by adding 20 ng/mL interferon gamma (IFNγ) and 100 ng/mL lipopolysaccharide (LPS) to each well. Following stimulation, the THP-1 cells were incubated for 6 or 36 hours at 37° C. with 5% (v/v) CO2. Supernatant was collected and stored at −80° C. until use.
IL-6 released from supernatants collected at 6 or 36 hours post stimulation with IFNγ and LPS were measured using the AlphaLISA Human IL-6 detection kit.

[2] = test system: EPC2 human esophageal keratinocytes; assay: Stimulation of EPC2-hTERT human esophageal keratinocytes with Poly(I:C); assay type: cell-based; conditions: 24 hours, increasing concentrations; for percent inhibition relative to Stimulated of TSLP expression: FIG. 19A; for percent inhibition relative to Stimulated of IL-6 expression: FIG. 19B; for percent inhibition relative to Stimulated of MCP-1 expression: FIG. 19C
Description: EPC2-hTERT (EPC2) cells were maintained in supplemented keratinocyte serum-free medium (KSFM) with 0.09 mM calcium chloride containing epidermal growth factor (5 ng/mL), bovine pituitary extract ([…]), penicillin (100 units/mL), and streptomycin ([…]) (ThermoFisher #17005042) at 37° C. with 5% (v/v) CO2. EPC2 cells were seeded in 12-well plates at 0.55×10^6 cells per well in supplemented KSFM at 37° C. with 5% (v/v) CO2 and after 6 hours the old media is removed and changed with fresh media. After overnight incubation, the old media is changed to supplemented KSFM containing 1.8 mM calcium chloride and incubated for 72 hours at 37° C. with 5% (v/v) CO2. After the old media is removed and fresh supplemented KSFM containing 1.8 mM calcium chloride is added, the cells are pre-treated with different concentrations of compounds (0, 1, 10, 100, 500, 1000 μM) for 1 hour prior to stimulation. To stimulate the cells, Poly (I:C) (Tocris #4287) is added to the wells at […] concentration without removing the media and incubated for 24 hours at 37° C. with 5% (v/v) CO2. Supernatants are collected in Eppendorf tubes, centrifuged in a microfuge at maximum speed for 10 minutes at 4° C., and the centrifuged supernatants stored at −80° C. until quantitative detection assays are performed. Human Interleukin-6 (IL-6), Monocyte Chemoattractant Protein-1 (MCP-1), and Thymic stromal lymphopoietin (TSLP) released from supernatants collected post stimulation were measured using the AlphaLISA detection kit for human IL-6, MCP-1, and TSLP, respectively.

human naïve T cells = assay: Stimulation of blood derived naïve T cells with Der p1 (house dust mite) antigen; assay type: cell-based; conditions: at 100 μM; human T cells, Der p1 antigen; FIG. 15
Description: Naïve T cells from peripheral blood samples were collected and processed using MACSxpress® Whole Blood Pan T Cell Isolation Kit (Miltenyi Biotec), according to the manufacturer's protocol. Isolated naïve T cells were cultured in RPMI medium supplemented with 5% Fetal Bovine Serum (FBS) at 37° C. with 5% (v/v) CO2. T cells were seeded in 24 well plates at a density of 0.5×10^6 cells per well. The cells were pre-treated with the compounds (0, 0.1, 1.0, 10, 100 μM) for 1 hour prior to stimulation. Cells were stimulated with […] of Dermatophagoides pteronyssinus (Der p1) antigen. After 48 hours, fresh […] of Der p1 was added and continued incubating for a further 72 hours at 37° C. with 5% (v/v) CO2. Overall T cells were stimulated with […] of Der p1 antigen for 5 days before supernatants were collected and stored at −80° C. until quantitative detection assays are performed.
Human Interleukin-4 (IL-4), Interleukin-5 (IL-5), Interleukin-6 (IL-6), Interleukin-8 (IL-8), Interleukin-13 ([…]), Interleukin-23 (IL-23), and Interferon gamma (IFNγ) released from supernatants collected post stimulation were measured using Human Magnetic Luminex® Assay Kit. Human Transforming Growth Factor beta (TGFβ) was measured using an Enzyme-Linked Immunosorbent Assay (ELISA)-based analysis.

[3] = test system: A549 human alveolar epithelial cells; assay: Stimulation of A549 human lung carcinoma cell line, cytokine expression; assay type: cell-based; conditions: A549, 10 ng/mL TNFα + 10 ng/mL IL-1β, 48 hours
Description: A549 cells are cultured in DMEM supplemented with 2 mM glutamine and 10% Fetal Bovine Serum (FBS) at 37° C. with 5% (v/v) CO2. Cells are grown to approximately 80% confluency before being passage and media is changed every 2-3 days. A549 cells are seeded in 24-well plates at a density of 0.5×10^6 cells per well at 37° C. with 5% (v/v) CO2. The cells are pre-treated with the compounds (0, 1.0, 10, 100 μM) for 1 hour prior to addition of 10 ng/mL of TNFα and 10 ng/mL of IL-1β for 48 hours at 37° C. with 5% (v/v) CO2. Supernatants were collected and stored at −80° C. until quantitative detection assays are performed.
Human Eotaxin, Monocyte Chemoattractant Protein-1 (MCP-1), Interleukin-6 (IL-6), Interleukin-25 (IL-25), Interleukin-33 (IL-33), Thymic stromal lymphopoietin (TSLP), and Granulocyte-Macrophage Colony-Stimulating Factor (GM-CSF) released from supernatants collected post stimulation were measured using Human Magnetic Luminex® Assay Kit. Human CCL5/RANTES was measured using an Enzyme-Linked Immunosorbent Assay (ELISA)-based analysis.

[4] = test system: THP-1 derived macrophages; assay: Stimulation of THP-1 cells, cytokine release 72 h post stimulation; assay type: cell-based, human; conditions: 72 h post stimulation (IFN-γ + LPS); 0.1, 1, 10, 100 or 200 μM vs 0 μM
Description: Human immortalized monocytic THP-1 cells were maintained in phenol red free RPMI 1640 medium containing 10% (v/v) fetal bovine serum (FBS), 2 mM L-glutamine, penicillin (100 units/mL), streptomycin (100 μg/mL), amphotericin B (2.5 μg/mL), and 50 μM beta-mercaptoethanol (BME) at 37° C. with 5% (v/v) CO2. THP-1 cells were seeded in 1 mL of THP-1 medium (cell culture medium containing 10% (v/v) FBS, 2 mM L-glutamine, penicillin (100 units/mL), streptomycin (100 μg/mL), amphotericin B (2.5 μg/mL), and 50 μM BME)/well at a density of 1 million cells/mL in six-well plates. Cells were differentiated by adding 100 nM phorbol 12-myristate 13-acetate (PMA) to each well before incubating cells for 5.5 h at 37° C. with 5% (v/v) CO2. Without removing the media, different concentrations (either 0, 0.1, 1, 10, 100, or 200 μM) of 1 and 10 were added to each well. Cells were stimulated, within 30 min by adding 20 ng/mL interferon gamma (IFN-γ) and 100 ng/mL lipopolysaccharide (LPS) to each well. Following stimulation, the THP-1 cells were incubated for 72 h at 37° C. with 5% (v/v) CO2. Supernatant was collected and stored at −80° C. until use.
IL-6 release from supernatant collected at 72 hours post stimulation was measured using the AlphaLISA Human IL-6 detection kit.
TNFα release from supernatant collected at 72 hours post stimulation was measured using the AlphaLISA Human TNFα detection kit.

| Compound | percent inhibition relative to Control of IL-6 levels secreted [1] | percent inhibition relative to Stimulated of TSLP expression [2] | percent inhibition relative to Stimulated of IL-6 expression [2] | percent inhibition relative to Stimulated of MCP-1 expression [2] | percent inhibition relative to Stimulated of IL-6 expression (human naïve T cells) | percent inhibition relative to Stimulated of IL-8 expression (human naïve T cells) | percent inhibition relative to Stimulated of TNFα expression (human naïve T cells) | percent inhibition relative to Stimulated of GM-CSF expression ([3]; 1.0, 10, 100 μM, FIG. 16, 17) | percent inhibition relative to Stimulated of IL-25 expression ([3]; 1.0, 10, 100 μM, FIG. 16, 17) | percent inhibition relative to Stimulated of IL-33 expression ([3]; 1.0, 10, 100 μM, FIG. 16, 17) | percent inhibition relative to Stimulated of MCP-1 expression ([3]; 1.0, 10, 100 μM, FIG. 16, 17) | percent inhibition relative to Stimulated of Eotaxin expression ([3]; FIG. 18) | percent inhibition relative to Stimulated of IL-6 expression ([3]; FIG. 18) | percent inhibition relative to Stimulated of RANTES expression ([3]; FIG. 18) | percent inhibition relative to Stimulated of TSLP expression ([3]; FIG. 18) | fold change of IL-6 levels secreted by the THP1-derived macrophages [4] | fold change of TNFα levels secreted by the THP1-derived macrophages [4] |
| --- | --- | --- | --- | --- | --- | --- | --- | --- | --- | --- | --- | --- | --- | --- | --- | --- | --- |
| C[C@H](CC/C=C/C(=O)OCC1CCCCC1)O[C@@H]1O[C@@H](C)[C@H](O)C[C@H]1O [Compound 3, cyclohexylmethyl (2E,6R)-6-{[(2R,3R,5R,6S)-3,5-dihydroxy-6-methyloxan-2-yl]oxy}hept-2-enoate] | inhibited IL-6 expression in statistically significant, dose-dependent manner | statistically significant inhibition; also recorded: completely inhibited | inhibited IL-6 expression in statistically significant, dose-dependent manner | inhibited MCP-1 expression in statistically significant, dose-dependent manner | statistically significant inhibition | statistically significant inhibition | statistically significant inhibition |  |  |  |  |  |  |  |  |  |  |
| C[C@H](CCCCC(=O)OC(C)(C)C)O[C@@H]1O[C@@H](C)[C@H](O)C[C@H]1O [Compound 10, tert-butyl (R)-6-(((2R,3R,5R,6S)-3,5-dihydroxy-6-methyltetrahydro-2H-pyran-2-yl)oxy)heptanoate] | inhibited IL-6 expression in statistically significant, dose-dependent manner | statistically significant inhibition; also recorded: robust blocking | inhibited IL-6 expression in statistically significant, dose-dependent manner | inhibited MCP-1 expression in statistically significant, dose-dependent manner |  |  |  | overall statistically significant, dose-dependent inhibition | overall statistically significant, dose-dependent inhibition | overall statistically significant, dose-dependent inhibition | overall statistically significant, dose-dependent inhibition | robust, statistically significant inhibition | robust, statistically significant inhibition | robust, statistically significant inhibition | robust, statistically significant inhibition | reduced these levels significantly; also recorded: even more significantly reduced | reduced these levels significantly |

— patent publication US11845770B2, “Ascaroside derivatives and methods of use” (California Institute of Technology, priority 2019, dated 2023)
